Test results published in patent US10323037B2, “Aminopyridazinone compounds as protein kinase inhibitors” (Jiangsu Hengrui Medicine Co., Ltd., priority 2014, dated 2019).

These molecules were tested on TMD-8 cells (assay: Cell proliferation assay (CellTiter-Glo), TMD-8). Settings: 5-day treatment; read-out: TMD8 cells growth IC50.
Format: cell-based
Procedure: Cell proliferation assay: TMD-8 and SU-DHL-1 cells were maintained at 37° C. in a humidified atmosphere with 5% CO2 in the recommended medium and serum concentrations. For cell proliferation assay, cells were seeded in 96-well pates at a density of 5,000 to 10,000 cells per well and cultured overnight at 37° C. in recommended medium supplemented with 5-10% FBS. On the next day, the test articles at various concentrations or vehicle control (0.5% DMSO) were added into cell culture. After 5-day treatment, the growth of cells was assayed by the CellTiter-Glo® Luminestceaent Cell Viability Assay (Promega). IC50 values were calculated using GraphPad Prism by plotting the logarithm of the concentration versus percent inhibition of cell growth as compared with the vehicle control.

`CN(C)C/C=C/C(=O)NC1C2CCC1CC(n1cc(-c3ccc(Oc4ccccc4)cc3)c3c(N)n[nH]c(=O)c31)C2` (stereo not drawn) [Example 48, (E)-N-[3-[4-amino-7-oxo-3-(4-phenoxyphenyl)-6H-pyrrolo[2,3 d]pyridazin-1-yl]-8-bicyclo[3.2.1]octanyl]-4-(dimethylamino)but-2-enamide] and `CN(C)C/C=C/C(=O)N1CCC(F)C(n2cc(-c3ccc(Oc4ccccc4)cc3)c3c(N)n[nH]c(=O)c32)C1` (stereo not drawn) [Example 45, 4-amino-1-[1-[(E)-4-(dimethylamino)but-2-enoyl]-4-fluoro-3-piperidyl]-3-(4-phenoxyphenyl)-6H-pyrrolo[2,3 d]pyridazin-7-one] cannot be ordered by IC50: 0.01 to 1 µM for the first, at most 0.01 µM for the second.

Same assay, conditions: Homo sapiens, TMD8, 120 h; 5-day treatment; read-out: TMD8 cells growth IC50

`COc1cc(-c2cn([C@@H]3CCCN(C(=O)/C=C/CN(C)C)C3)c3c(=O)[nH]nc(N)c23)ccc1Oc1ccc(Cl)c(Cl)c1` [Example 73, 4-amino-3-[4-(3,4-dichlorophenoxy)-3-methoxy-phenyl]-1-[(3R)-1-[(E)-4-(dimethylamino)but-2-enoyl]-3-piperidyl]-6H-pyrrolo[2,3-d]pyridazin-7-one] and `COc1cc(-c2cn(C3CCCN(C(=O)/C=C/CN(C)C)C3)c3c(=O)[nH]nc(N)c23)ccc1Oc1cccc(Cl)c1` (stereo not drawn) [Example 69, 4-amino-3-[4-(3-chlorophenoxy)-3-methoxy-phenyl]-1-[1-[(E)-4-(dimethylamino)but-2-enoyl]-3-piperidyl]-6H-pyrrolo[2,3-d]pyridazin-7-one] cannot be ordered by IC50: 0.01 to 1 µM for the first, at most 0.01 µM for the second.

`CC#CC(=O)N1CC[C@@H](n2cc(-c3ccc(Oc4c(F)cccc4F)cc3)c3c(N)n[nH]c(=O)c32)C1` [Example 93, (R)-4-amino-1-(1-(but-2-ynoyl)pyrrolidin-3-yl)-3-(4-(2,6-difluorophenoxy)phenyl)-1H-pyrrolo[2,3-d]pyridazin-7(6H)-one] and `CC#CC(=O)N1CC[C@@H](n2cc(-c3ccc(Oc4c(F)cccc4Cl)cc3)c3c(N)n[nH]c(=O)c32)C1` [Example 94, (R)-4-amino-1-(1-(but-2-ynoyl)pyrrolidin-3-yl)-3-(4-(2-chloro-6-fluorophenoxy)phenyl)-1H-pyrrolo[2,3-d]pyridazin-7(6H)-one] cannot be ordered by IC50: at most 0.01 µM for the first, at most 0.01 µM for the second.

`C=CC(=O)N1CC[C@@H](n2cc(-c3ccc(Oc4ccccc4)cc3)c3c(N)n[nH]c(=O)c32)C1` [Example 4, 4-amino-3-(4-phenoxyphenyl)-1-[(3R)-1-prop-2-enoylpyrrolidin-3-yl]-6H-pyrrolo[2,3-d]pyridazin-7-one] and `C=CC(=O)N1CC[C@H](n2cc(-c3ccc(Oc4ccccc4)cc3)c3c(N)n[nH]c(=O)c32)C1` [Example 3, 4-amino-3-(4-phenoxyphenyl)-1-[(3S)-1-prop-2-enoylpyrrolidin-3-yl]-6H-pyrrolo[2,3-d]pyridazin-7-one] fall in the same range of IC50: 0.01 to 1 µM for the first, 0.01 to 1 µM for the second.

`CN(C/C=C/C(=O)N1CCC[C@@H](n2cc(-c3ccc(Oc4ccccc4)cc3)c3c(N)n[nH]c(=O)c32)C1)C1CCC1` [Example 31, 4-amino-1-[(3R)-1-[(E)-4-[cyclobutyl(methyl)amino]but-2-enoyl]-3-piperidyl]-3-(4-phenoxyphenyl)-6H-pyrrolo[2,3-d]pyridazin-7-one] and `CN(C/C=C/C(=O)N1CCC[C@@H](n2cc(-c3ccc(Oc4ccccc4)cc3)c3c(N)n[nH]c(=O)c32)C1)C1CC1` [Example 29, 4-amino-1-[(3R)-1-[(E)-4-(cyclopropyl(methyl)amino)but-2-enoyl]-3-piperidyl]-3-(4-phenoxyphenyl)-6H-pyrrolo[2,3-d]pyridazin-7-one] cannot be ordered by IC50: 0.01 to 1 µM for the first, at most 0.01 µM for the second.

`CN(C)C/C=C/C(=O)N1CCC(Cn2cc(-c3ccc(Oc4ccccc4)cc3)c3c(N)n[nH]c(=O)c32)C1` (stereo not drawn) [Example 43, 4-amino-1-[[1-[(E)-4-(dimethylamino)but-2-enoyl]pyrrolidin-3-yl]methyl]-3-(4-phenoxyphenyl)-6H-pyrrolo[2,3-d]pyridazin-7-one] and `CN(C)C/C=C/C(=O)N1CC[C@@H](n2cc(-c3ccc(Oc4ccccc4)cc3)c3c(N)n[nH]c(=O)c32)C1` [Example 39, 4-amino-1-[(3R)-1-[(E)-4-(dimethylamino)but-2-enoyl]pyrrolidin-3-yl]-3-(4-phenoxyphenyl)-6H-pyrrolo[2,3-d]pyridazin-7-one] cannot be ordered by IC50: 0.01 to 1 µM for the first, at most 0.01 µM for the second.

`C=CC(=O)N1C[C@H](n2cc(-c3ccc(Oc4ccccc4)cc3)c3c(N)n[nH]c(=O)c32)CC(F)(F)C1` [Example 14, (R)-1-(1-acryloyl-5,5-difluoropiperidin-3-yl)-4-amino-3-(4-phenoxyphenyl)-1H-pyrrolo[2,3-d]pyridazin-7(6H)-one] and `C=CC(=O)N1CCC(Cn2cc(-c3ccc(Oc4ccccc4)cc3)c3c(N)n[nH]c(=O)c32)C1` (stereo not drawn) [Example 8, 4-amino-3-(4-phenoxyphenyl)-1-[(1-prop-2-enoylpyrrolidin-3-yl)methyl]-6H-pyrrolo[2,3-d]pyridazin-7-one] cannot be ordered by IC50: at most 0.01 µM for the first, 0.01 to 1 µM for the second.

`C=CC(=O)N1CCC[C@@H](n2cc(-c3ccc(Oc4ccccc4)cc3F)c3c(N)n[nH]c(=O)c32)C1` [Example 76, (R)-1-(1-acryloylpiperidin-3-yl)-4-amino-3-(2-fluoro-4-phenoxyphenyl)-1H-pyrrolo[2,3-d]pyridazin-7(6H)-one] and `C=CC(=O)N1CCCC(n2cc(-c3ccc(Oc4ccccc4F)cc3)c3c(N)n[nH]c(=O)c32)C1` (stereo not drawn) [Example 55, 1-(1-acryloylpiperidin-3-yl)-4-amino-3-(4-(2-fluorophenoxy)phenyl)-1H-pyrrolo[2,3-d]pyridazin-7(6H)-one] cannot be ordered by IC50: at most 0.01 µM for the first, at most 0.01 µM for the second.

`C=CC(=O)N1CCC[C@@H](n2nc(-c3ccc(Oc4ccccc4)cc3)c3c(N)n[nH]c(=O)c32)C1` [Example 110, (R)-1-(1-acryloylpiperidin-3-yl)-4-amino-3-(4-phenoxyphenyl)-1H-pyrazolo[3,4-d]pyridazin-7(6H)-one] and `C=CC(=O)N1CCCC(n2cc(-c3ccc(Oc4ccc(Cl)cc4)cc3)c3c(N)n[nH]c(=O)c32)C1` (stereo not drawn) [Example 64, 1-(1-acryloylpiperidin-3-yl)-4-amino-3-(4-(4-chlorophenoxy)phenyl)-1H-pyrrolo[2,3-d]pyridazin-7(6H)-one] cannot be ordered by IC50: at most 0.01 µM for the first, at most 0.01 µM for the second.

`COc1ccc(-c2cn(C3CCCN(C(=O)/C=C/CN(C)C)C3)c3c(=O)[nH]nc(N)c23)cc1Cl` (stereo not drawn) [Example 54, 4-amino-3-(3-chloro-4-methoxy-phenyl)-1-[1-[(E)-4-(dimethylamino)but-2-enoyl]-3-piperidyl]-6H-pyrrolo[2,3-d]pyridazin-7-one] and `CN(C)C/C=C/C(=O)N1CCC[C@@H](n2cc(-c3ccc(Oc4ccccc4Cl)cc3)c3c(N)n[nH]c(=O)c32)C1` [Example 71, 4-amino-3-[4-(2-chlorophenoxy)phenyl]-1-[(3R)-1-[(E)-4-(dimethylamino)but-2-enoyl]-3-piperidyl]-6H-pyrrolo[2,3-d]pyridazin-7-one] cannot be ordered by IC50: 0.01 to 1 µM for the first, at most 0.01 µM for the second.

`C=CC(=O)N1CCCC(n2cc(-c3ccc(OC)cc3)c3c(N)n[nH]c(=O)c32)C1` (stereo not drawn) [Example 51, 1-(1-acryloylpiperidin-3-yl)-4-amino-3-(4-methoxyphenyl)-1H-pyrrolo[2,3-d]pyridazin-7(6H)-one] and `CN(C)C/C=C/C(=O)N1CCC[C@@H](n2cc(-c3ccc(Oc4c(F)cccc4Cl)cc3)c3c(N)n[nH]c(=O)c32)C1` [Example 79, 4-amino-3-[4-(2-chloro-6-fluoro-phenoxy)phenyl]-1-[(3R)-1-[(E)-4-(dimethylamino)but-2-enoyl]-3-piperidyl]-6H-pyrrolo[2,3-d]pyridazin-7-one] cannot be ordered by IC50: 0.01 to 1 µM for the first, at most 0.01 µM for the second.

`N#CN1CCC[C@@H](n2cc(-c3ccc(Oc4ccccc4)c(F)c3)c3c(N)n[nH]c(=O)c32)C1` [Example 85, (R)-3-(4-amino-3-(3-fluoro-4-phenoxyphenyl)-7-oxo-6,7-dihydro-1H-pyrrolo[2,3-d]pyridazin-1-yl)piperidine-1-carbonitrile] and `Nc1n[nH]c(=O)c2c1c(-c1ccc(Oc3ccccc3)cc1)cn2[C@@H]1CCCN(C(=O)/C=C/CN2CCC2)C1` [Example 33, 4-amino-1-[(3R)-1-[(E)-4-(azetidin-1-yl)but-2-enoyl]-3-piperidyl]-3-(4-phenoxyphenyl)-6H-pyrrolo[2,3-d]pyridazin-7-one] cannot be ordered by IC50: at most 0.01 µM for the first, at most 0.01 µM for the second.

`CC(C)N(C)C/C=C/C(=O)N1CCC[C@@H](n2cc(-c3ccc(Oc4ccccc4)cc3)c3c(N)n[nH]c(=O)c32)C1` [Example 16, 4-amino-1-[(3R)-1-[(E)-4-[isopropyl(methyl)amino]but-2-enoyl]-3-piperidyl]-3-(4-phenoxyphenyl)-6H-pyrrolo[2,3-d]pyridazin-7-one] and `CN(C/C=C/C(=O)N1CCC[C@@H](n2cc(-c3ccc(Oc4ccccc4)cc3)c3c(N)n[nH]c(=O)c32)C1)C(=O)OC(C)(C)C` [Example 17] fall in the same range of IC50: 0.01 to 1 µM for the first, 0.01 to 1 µM for the second.

`CN(C)C/C=C/C(=O)N1CCC[C@H]1Cn1cc(-c2ccc(Oc3ccccc3)cc2)c2c(N)n[nH]c(=O)c21` [Example 41, 4-amino-1-[[(2S)-1-[(E)-4-(dimethylamino)but-2-enoyl]pyrrolidin-2-yl]methyl]-3-(4-phenoxyphenyl)-6H-pyrrolo[2,3-d]pyridazin-7-one] and `C=CC(=O)Nc1cccc(-n2cc(-c3ccc(Oc4ccccc4)cc3)c3c(N)n[nH]c(=O)c32)c1` [Example 88, N-(3-(4-amino-7-oxo-3-(4-phenoxyphenyl)-6,7-dihydro-1H-pyrrolo[2,3-d]pyridazin-1-yl)phenyl)acrylamide] cannot be ordered by IC50: 0.01 to 1 µM for the first, at most 0.01 µM for the second.

`C=CC(=O)Nc1cccc(-n2cc(-c3ccc(Oc4ccccc4F)cc3)c3c(N)n[nH]c(=O)c32)c1` [Example 91, N-(3-(4-amino-3-(4-(2-fluorophenoxy)phenyl)-7-oxo-6,7-dihydro-1H-pyrrolo[2,3-d]pyridazin-1-yl)phenyl)acrylamide] and `C=CC(=O)Nc1cccc(-n2cc(-c3ccc(OC)c(Cl)c3)c3c(N)n[nH]c(=O)c32)c1` [Example 89, N-(3-(4-amino-3-(3-chloro-4-methoxyphenyl)-7-oxo-6,7-dihydro-1H-pyrrolo[2,3-d]pyridazin-1-yl)phenyl)acrylamide] cannot be ordered by IC50: at most 0.01 µM for the first, 0.01 to 1 µM for the second.
